Entries after “also recorded” stand apart in the source; their conditions may differ.
Assays:
[1] = test system: retinal neovascularization; experiment: Oxygen-induced ischemic retinopathy, retinal neovascularization; type: in vivo, neonatal C57BL/6 mice; conditions: 100 μg CGC-11144, 1 mg CGC-11047, 750 μg CGC-11093; for amount of retinal neovascularization at P20 vs vehicle (regression): daily periocular injections P17 to P20; for amount of retinal neovascularization at P17 vs vehicle (suppression): periocular injection at P12
Protocol: Ischemic retinopathy can be produced in neonatal C57BL/6 mice as described (Smith, L. E et al., Invest. Opthalmol. Vis. Sci. 35: 101-111 (1994)) and serves as a model for retinopathy of prematurity (ROP). Post-natal day 7 (P7) mice and their mothers were placed in an airtight incubator and exposed to an atmosphere of 75±3% oxygen for 5 days. Incubator temperature was maintained at 23±2° C. and oxygen was continuously monitored with a PROOX model 110 oxygen controller (Reming Bioinstruments Co., Redfield, N.Y.). At post-natal day 12, mice were placed back in room air and were given a periocular injection of 3 μl containing 100 μg of CGC-11144 (n=4), 1 mg of CGC-11047 (n=4), 750 μg of CGC-11093 (n=4) or vehicle. On post-natal day 17 (P17) the treated and control mice were euthanized and the amount of retinal neovascularization was measured.
For measurement of retinal neovascularization, eyes were removed and fixed in 2% paraformaldehyde in phosphate buffered saline (PBS) for one hour and rinsed twice in 25% sucrose in PBS. Specimens were incubated in 25% sucrose in PBS overnight and embedded in OCT compound (Miles Diagnostics, Elkhart, Ind.),). 10 μm frozen sections were post-fixed for 15 minutes in 0.5% glutaraldehyde in PBS and washed in PBS. Sections were also histochemically stained with biotinylated Griffonia simplicifolia lectin B4 (GSA, Vector Laboratories, Burlingame, Calif.), which selectively binds to vascular cells. Slides were incubated in methanol/H2O2 for 10 minutes at 4° C., washed with 0.05 M Tris-buffered saline, pH 7.6 (TBS), and incubated for 30 minutes in 10% normal porcine serum. Slides were incubated 2 hours at room temperature with biotinylated GSA and after rinsing with 0.05M TBS, they were incubated with avidin coupled to peroxidase (Vector Laboratories, Burlingame, Calif.) for 30 minutes at room temperature. After being washed for 10 minutes with 0.05M TBS, slides were incubated with diaminobenzidine (Research Genetics, Huntsville, Ala.) to give a brown reaction product.
To perform quantitative assessments, 10 μm frozen serial sections were cut from the iris root on one side of the eye to the iris root on the opposite side of the eye and every tenth section was stained with GSA. Retinas were examined with an Axioskop microscope and images were digitized using a 3 CCD color video camera and a frame grabber. Image-Pro Plus software was used to delineate GSA-stained vascular cells above the internal limiting membrane and the total area of staining was measured.
To investigate the effect of these agents on regression of retinal neovascularization, ischemic retinopathy was induced and left untreated until P17, when the baseline amount of retinal neovascularization was measured in one group of mice. From post-natal days 17 to 20 (P17 to P20) the remainder of the mice were given daily periocular injections of 100 μg of CGC-11144 (n=4), 1 mg of CGC-11047 (n=4), 750 μg of CGC-11093 (n=4) or vehicle. On P20 the mice were euthanized and the amount of retinal neovascularization in the treated and control mice was measured as described above.

[2] = test system: subretinal neovascularization; experiment: Rhodopsin/VEGF transgenic mice, subretinal neovascularization; type: in vivo, rhodopsin/VEGF transgenic mice (V6 mice); conditions: periocular injection at P7, measured P21; 100 μg CGC-11144, 1 mg CGC-11047, 750 μg CGC-11093
Text: Transgenic mice (V6 mice) in which the rhodopsin promoter drives expression of VEGF165 in photoreceptors have onset of VEGF expression at post-natal day 7 (P7) and soon after begin to develop neovascularization originating from the deep capillary bed that grows through the photoreceptor layer into the subretinal space. (Okamoto N et al., Amer. J. Pathol. 151: 281-91 (1997); Tobe T et al., Invest. Ophthalmol. Vis. Sci. 39: 180-188 (1998)). Hemizygous transgene positive mice were given a periocular injection of 100 μg of CGC-11144 (n=3), 1 mg of CGC-11047 (n=3), 750 μg of CGC-11093 (n=3) or vehicle (n=7) at P7. At post-natal day 21 (P21), mice were euthanized and the amount of subretinal neovascularization was quantified as previously described (Tobe, ibid.). Briefly, mice were anesthetized, perfused with fluorescein-labeled dextran, and the number of neovascular lesions on the outer surface of the retina and their total area were measured on retinal flat mounts by image analysis as described in Example 1.

[3] = test system: choroidal neovascularization (CNV) at Bruch's membrane rupture sites; experiment: Mouse model of laser-induced choroidal neovascularization (rupture of Bruch's membrane), CNV area on choroidal flat mounts; type: in vivo, C57BL/6J mice; conditions: for amount of established CNV on day 14 vs vehicle and day 7 baseline (regression): single periocular injection at day 7; for amount of CNV on day 14 vs vehicle (suppression): single periocular injection at time of rupture
[4] = 2 mg CGC-11047, 1.5 mg CGC-11093
[5] = 200 μg CGC-11144, 2 mg CGC-11047, 1.5 mg CGC-11093
[6] = single periocular injection one week prior to rupture, 200 μg CGC-11144, 2 mg CGC-11047, 1.5 mg CGC-11093
[7] = single periocular injection three weeks before laser, 2 mg CGC-11047, 1.5 mg CGC-11093
[8] = single periocular injection two weeks prior to rupture, 200 μg CGC-11144, 2 mg CGC-11047, 1.5 mg CGC-11093

| SMILES | amount of retinal neovascularization at P20 vs vehicle (regression) [1] | amount of retinal neovascularization at P17 vs vehicle (suppression) [1] | subretinal neovascularization vs vehicle [2] | amount of established CNV on day 14 vs vehicle and day 7 baseline (regression) [3, 4] | amount of CNV on day 14 vs vehicle (suppression) [3, 5] | amount of CNV vs vehicle (duration of effect) [3, 6] | amount of CNV vs vehicle (duration of effect) [3, 7] | amount of CNV vs vehicle (duration of effect) [3, 8] | area of CNV vs day 7 baseline and vehicle fellow eyes (regression) ([3]; daily periocular injections days 7 to 14, 200 μg CGC-11144, 100 μg DFMO, or both) |
| --- | --- | --- | --- | --- | --- | --- | --- | --- | --- |
| CCNCCCNC/C=C\CNCCCNCC [CGC-11047] | significantly less neovascularization | significantly less | significantly less subretinal neovascularization | less CNV than those treated with vehicle and less than the baseline amount of CNV | significantly reduced the amount of CNV | significant reduction of the amount of CNV | no significant effect | significantly smaller amounts of CNV |  |
| NCCCC(N)(C(=O)O)C(F)F (racemic) [DFMO, D,L-α-difluoromethyl-omithine, reference compound] |  |  |  |  |  |  |  |  | significant reduction in the area of CNV; also recorded: significantly less |
| CCNCCCCNCC1CC1CNCCCCNCC (centres unmarked) [CGC-11093] | significantly less neovascularization | significantly less | significantly less subretinal neovascularization | less CNV than those treated with vehicle and less than the baseline amount of CNV | significantly reduced the amount of CNV | significant reduction of the amount of CNV | no significant effect | significantly smaller amounts of CNV |  |
